In patent publication US9662329B2, “Use of survivin antagonists in polyomavirus-related disease” (University of Pittsburgh—Of the Commonwealth System of …, priority 2012, dated 2017):

Key:
[1] = tested on: MCV-positive MCC cell lines (MKL-1, MKL-2, MS-1 and WaGa); assay: Cell-Titer Glo growth inhibition by YM155; type: cell-based, human; conditions: 48 h
From the text: Seven Merkel cell carcinoma cell lines: MKL-1, MKL-2, MS-1, UISO, MCC13, MCC26 and WaGa (kind gift of Jurgen Becker (Houben et al., Merkel cell polyomavirus-infected Merkel cell carcinoma cells require expression of viral T antigens. J Virol 84, 7064 (July, 2010); Ronan et al., Merkel cell carcinoma: in vitro and in vivo characteristics of a new cell line. J Am Acad Dermatol 29, 715 (November, 1993); Rosen et al., Establishment and characterization of a neuroendocrine skin carcinoma cell line. Lab Invest 56, 302 (March, 1987)); NCI-H69 small cell lung cancer cell line (ATCC); 293 human embryonic kidney cells (ATCC); U2OS osteosarcoma cell line (kind gift of Ole Gjoerup); BJhTERT immortalized foreskin fibroblast cell line (kind gift of Ole Gjoerup); and BJ primary foreskin fibroblasts (ATCC) were used to screen and evaluate the small molecules examined in this study (Houben et al., J Virol 84, 7064 (July, 2010); Ronan et al., J Am Acad Dermatol 29, 715 (November, 1993); Rosen et al., Lab Invest 56, 302 (March, 1987)). […]
Serial drug dilutions from 10^−4 M to 10^−9 M were used on MCC and non-MCC cell lines. […] Cell viability was then measured using Cell Titer Glo (Promega) kit following manufacturer's instructions as described previously. […] EC50 doses for the drugs were calculated using a four parameter logistic equation (GraphPad Prism).

MKL-1 cells = assay: Cell death evaluation by CFDA and PI staining; type: cell-based, human; conditions: 100 nM
Description: Upon harvesting cells are resuspended in 2 ml of PBS containing 4 μg/ml PI (propidium iodide, Sigma) and 10 μM Carboxy fluorescin diacetate (CFDA, Invitrogen) at room temperature for 10 mins. Cells were then rinsed in 1× PBS and then examined under the microscope. Quantitation was done using ImageJ software.

[2] = tested on: human MKL-1 MCC xenografts
Description: Compounds were dissolved in sterile 0.9% saline solution for administration to animals.
Six-week-old female triple immune-deficient NSG (Nod-SCID gamma) mice (Jackson Laboratory) were maintained in a specific pathogen-free environment.
MCC cells were checked for viability >90% by trypan blue staining, resuspended in PBS (2×10^7 cells in 100 μl) and inoculated subcutaneously into the right flank of mice.
All treatments were delivered for three consecutive weeks. […] YM-155 (2 mg/kg) was given intraperitoneally on five consecutive days, followed by a two-day treatment free interval.
Two-tailed paired Student's t test was used to analyze statistical differences in qRT-PCR results. Mouse survival curves were estimated using the Kaplan-Meier product-limit method and were compared using the log-rank test (GraphPad Software, La Jolla, Calif.). A piecewise linear hierarchical Bayesian model (Zhao et al., Bayesian hierarchical changepoint methods in modeling the tumor growth profiles in xenograft experiments. Clinical Cancer Res 17, 1057 (Mar. 1, 2011)) was used to characterize differences in tumor volumes and growth between treatments.
Cells of Merkel cell polyomavirus (+) carcinoma cell lines MKL-1, MS-1, WaGa, and MKL-2 were checked for viability >90% by trypan blue staining, resuspended in PBS (2×10^7 cells in 100 μl) and inoculated subcutaneously into the right flank of mice.
YM-155 was given intraperitoneally on five consecutive days, followed by a two-day treatment free interval. For YM155 this treatment continued for three weeks or until mice were euthanized. Mice were euthanized upon showing a tumor having a diameter of 20 mm, or upon a showing of significant distress (>20% weight loss or when they became moribund). Caliper measurements of the longest perpendicular tumor diameters were performed every other day and tumor volumes were calculated using the formula: (width)^2×(length/2). Survival was defined as time from the first day of treatment until death/sacrifice.

[3] = three weeks treatment, bortezomib 1 mg/kg twice weekly, YM155 2 mg/kg 5 times weekly

COCCn1c2c([n+](Cc3cnccn3)c1C)C(=O)c1ccccc1C2=O.[Br-] [YM155, 1-(2-methoxyethyl)-2-methyl-4,9-dioxo-3-(pyrazin-2-ylmethyl)-4,9-dihydro-1H-naphtho[2,3-d]imidazol-3-ium bromide]
sensitivity to YM155, dose-dependent growth curves ([1]; MKL-1, MKL-2, MS-1 and WaGa): sensitive
EC50 ([1]; Homo sapiens, MKL-1, range over MCV-positive MCC cell lines, Cell-Titer Glo, read-out: EC50, inhibiting MCV-positive MCC cell growth in vitro): 1.34 to 12.2 nM
time to initiation of programmed cell death (PI positive, CFDA negative) (MKL-1 cells): 12 to 24 h
survival after initiation of treatment ([2]; Example 2, 2 mg/kg for three weeks): almost two months
survival after treatment began ([2]; Example 2, continuously at 4 mg/kg): more than three months
tumor growth after treatment was stopped ([2]; after single 3-week course, 2 mg/kg): all tumors resumed growth once YM155 was stopped
tolerability / adverse effects in mice ([2]; bortezomib 1 mg/kg twice weekly, YM155 2 mg/kg 5 times weekly): well-tolerated and no adverse effects or acute toxicities were noted
mice dying during treatment (up to day 19) [2, 3]: none
xenograft tumor growth / progression during treatment [2, 3]: markedly delayed MKL-1 xenograft growth
